From patent US10457655B2, “Compounds and compositions for inhibition of FASN” (FORMA Therapeutics, Inc., priority 2013, dated 2019)
Read-outs that look alike come from different tables or passages of the source.

How the values were obtained:
[1] = biological target: FASN enzyme (Homo sapiens, UniProt P49327); test: Enzymatic Assay for FASN Inhibitors; format: biochemical
Procedure, shortened: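 40 nM FASN preincubated with compound 60 min at 25° C in HEPES pH 7.3 buffer with 0.04% Triton X-100. Then 20 μM acetyl-CoA, 60 μM malonyl-CoA and 100 μM NADPH added for 90 min, quenched with CPM thiol probe; fluorescence 360/530 nm, IC50 by four-parameter fit.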

[2] = tested on: PC3 cells; test: Cell Proliferation Assays for FASN Inhibitors (PC3 cells, MTT); format: cell-based; conditions: Homo sapiens, PC-3, 96 h
Procedure, shortened: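 PC3 cells seeded overnight, then exposed to compound for 4 days at 37 °C in F12K with 10% lipid-reduced serum, 0.1% final DMSO. Viability read by MTT; IC50 from four-parameter logistic fit of dose–response.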

[3] = read-out: IC50 (uM) ≥ 0.5, 10% lipid reduced serum, 4 days, Table 3-2
[4] = read-out: IC50 (uM) < 0.5, 10% lipid reduced serum, 4 days, Table 3-1

Chain of FASN enzyme (P49327 whole entry): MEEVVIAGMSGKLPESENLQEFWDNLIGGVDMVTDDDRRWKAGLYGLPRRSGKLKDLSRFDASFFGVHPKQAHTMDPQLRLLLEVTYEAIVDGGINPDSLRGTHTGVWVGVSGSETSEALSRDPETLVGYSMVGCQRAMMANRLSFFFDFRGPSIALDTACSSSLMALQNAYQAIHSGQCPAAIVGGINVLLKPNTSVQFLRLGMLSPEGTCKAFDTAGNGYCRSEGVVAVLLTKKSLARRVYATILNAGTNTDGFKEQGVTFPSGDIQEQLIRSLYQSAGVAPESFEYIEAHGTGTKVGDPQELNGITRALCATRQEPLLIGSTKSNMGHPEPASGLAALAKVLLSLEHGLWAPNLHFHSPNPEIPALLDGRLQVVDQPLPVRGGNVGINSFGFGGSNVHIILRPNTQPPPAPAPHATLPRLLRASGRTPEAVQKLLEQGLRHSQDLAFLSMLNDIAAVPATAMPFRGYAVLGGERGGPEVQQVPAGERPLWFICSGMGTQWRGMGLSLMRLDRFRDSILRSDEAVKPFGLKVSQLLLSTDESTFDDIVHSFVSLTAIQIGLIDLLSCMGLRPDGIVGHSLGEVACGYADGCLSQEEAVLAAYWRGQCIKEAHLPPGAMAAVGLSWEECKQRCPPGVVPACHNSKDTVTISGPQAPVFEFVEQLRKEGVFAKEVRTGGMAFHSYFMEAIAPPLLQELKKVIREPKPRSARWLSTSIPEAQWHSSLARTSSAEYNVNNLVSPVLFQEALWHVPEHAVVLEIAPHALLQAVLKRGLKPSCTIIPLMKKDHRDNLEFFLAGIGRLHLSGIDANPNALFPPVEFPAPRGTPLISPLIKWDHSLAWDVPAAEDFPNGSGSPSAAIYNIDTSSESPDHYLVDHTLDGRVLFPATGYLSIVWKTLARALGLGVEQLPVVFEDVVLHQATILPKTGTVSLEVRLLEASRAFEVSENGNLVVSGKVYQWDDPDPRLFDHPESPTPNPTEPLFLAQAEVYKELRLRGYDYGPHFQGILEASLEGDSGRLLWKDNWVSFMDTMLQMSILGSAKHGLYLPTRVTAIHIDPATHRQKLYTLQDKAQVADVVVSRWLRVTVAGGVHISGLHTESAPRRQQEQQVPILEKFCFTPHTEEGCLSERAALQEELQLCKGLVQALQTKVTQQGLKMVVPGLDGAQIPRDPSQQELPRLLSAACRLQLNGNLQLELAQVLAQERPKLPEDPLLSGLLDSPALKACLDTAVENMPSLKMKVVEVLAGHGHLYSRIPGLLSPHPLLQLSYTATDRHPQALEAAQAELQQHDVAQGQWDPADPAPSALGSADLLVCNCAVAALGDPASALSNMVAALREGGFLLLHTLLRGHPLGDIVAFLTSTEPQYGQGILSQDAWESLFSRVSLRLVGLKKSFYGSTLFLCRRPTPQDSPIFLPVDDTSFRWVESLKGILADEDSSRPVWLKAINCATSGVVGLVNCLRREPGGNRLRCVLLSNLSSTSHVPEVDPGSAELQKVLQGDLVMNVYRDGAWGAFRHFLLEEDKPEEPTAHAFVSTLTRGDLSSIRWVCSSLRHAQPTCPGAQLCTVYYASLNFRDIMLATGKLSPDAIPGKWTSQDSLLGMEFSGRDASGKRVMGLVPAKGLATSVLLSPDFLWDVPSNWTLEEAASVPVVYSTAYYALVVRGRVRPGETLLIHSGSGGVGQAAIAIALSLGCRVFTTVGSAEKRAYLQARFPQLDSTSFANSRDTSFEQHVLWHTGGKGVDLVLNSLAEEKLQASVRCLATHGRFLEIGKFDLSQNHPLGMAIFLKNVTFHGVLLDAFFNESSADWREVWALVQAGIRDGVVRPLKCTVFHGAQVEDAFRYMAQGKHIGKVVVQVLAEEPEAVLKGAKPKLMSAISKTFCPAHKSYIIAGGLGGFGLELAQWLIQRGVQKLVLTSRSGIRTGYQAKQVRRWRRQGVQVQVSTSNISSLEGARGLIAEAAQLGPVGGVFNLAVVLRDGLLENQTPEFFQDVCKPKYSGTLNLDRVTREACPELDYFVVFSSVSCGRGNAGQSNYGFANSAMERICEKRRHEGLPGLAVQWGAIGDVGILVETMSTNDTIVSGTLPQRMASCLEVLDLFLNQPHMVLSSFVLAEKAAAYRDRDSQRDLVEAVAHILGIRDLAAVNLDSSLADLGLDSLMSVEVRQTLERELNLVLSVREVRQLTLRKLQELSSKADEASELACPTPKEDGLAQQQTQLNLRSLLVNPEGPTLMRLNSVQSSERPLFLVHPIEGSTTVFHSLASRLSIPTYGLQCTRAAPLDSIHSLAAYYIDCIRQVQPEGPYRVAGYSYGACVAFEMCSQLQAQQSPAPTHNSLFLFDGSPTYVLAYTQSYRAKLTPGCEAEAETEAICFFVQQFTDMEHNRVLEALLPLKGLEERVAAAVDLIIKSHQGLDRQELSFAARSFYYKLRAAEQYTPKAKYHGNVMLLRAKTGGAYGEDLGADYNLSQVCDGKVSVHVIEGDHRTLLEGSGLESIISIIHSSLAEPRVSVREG

| SMILES | IC50 [1] [µM] | IC50 [2, 3] [µM] | IC50 [2, 4] [µM] | IC50 ([1]; FASN enzymatic assay, Table 2-2) [µM] |
| --- | --- | --- | --- | --- |
| O=C(c1ccc(-c2ccc(Cl)cc2Cl)cc1)N1CCN(C(=O)C2(O)CC2)CC1 [1-[(4-{[4-(2,4-dichlorophenyl)phenyl]carbonyl}piperazin-1-yl)carbonyl]cyclopropan-1-ol] | < 0.5 | ≥ 0.5 |  |  |
| COc1ccc2cc(-c3ccc(C(=O)N4CCN(C(=O)C5(O)CC5)CC4)cc3)ccc2n1 [1-[(4-{[4-(2-methoxyquinolin-6-yl)phenyl]carbonyl}piperazin-1-yl)carbonyl]cyclopropan-1-ol] | < 0.5 |  | < 0.5 |  |
| Cn1cc2cc(-c3ccc(C(=O)N4CCN(C(=O)C5(O)CC5)CC4)cc3)ccc2n1 [1-[(4-{[4-(2-methyl-2H-indazol-5-yl)phenyl]carbonyl}piperazin-1-yl)carbonyl]cyclopropan-1-ol] | < 0.5 |  | < 0.5 |  |
| Cn1cc2ccc(-c3ccc(C(=O)N4CCN(C(=O)C5(O)CC5)CC4)cc3)cc2n1 [1-[(4-{[4-(2-methyl-2H-indazol-6-yl)phenyl]carbonyl}piperazin-1-yl)carbonyl]cyclopropan-1-ol] | < 0.5 |  | < 0.5 |  |
| O=C(c1ccc(-c2ccc3n[nH]nc3c2)cc1)N1CCN(C(=O)C2(O)CC2)CC1 [1-[(4-{[4-(2H-1,2,3-benzotriazol-5-yl)phenyl]carbonyl}piperazin-1-yl)carbonyl]cyclopropan-1-ol] | < 0.5 |  | < 0.5 |  |
| COc1c(Cl)cccc1-c1ccc(C(=O)N2CCN(C(=O)C3(O)CC3)CC2)cc1 [1-[(4-{[4-(3-chloro-2-methoxyphenyl)phenyl]carbonyl}piperazin-1-yl)carbonyl]cyclopropan-1-ol] | < 0.5 |  | < 0.5 |  |
| O=C(c1ccc(-c2ccc(Cl)cc2F)cc1)N1CCN(C(=O)C2(O)CC2)CC1 [1-[(4-{[4-(4-chloro-2-fluorophenyl)phenyl]carbonyl}piperazin-1-yl)carbonyl]cyclopropan-1-ol] | < 0.5 |  | < 0.5 |  |
| O=C(c1ccc(-c2cnc3ccccc3c2Cl)cc1)N1CCN(C(=O)C2(O)CC2)CC1 [1-[(4-{[4-(4-chloroquinolin-3-yl)phenyl]carbonyl}piperazin-1-yl)carbonyl]cyclopropan-1-ol] | < 0.5 |  | < 0.5 |  |
| O=C(c1ccc(-c2nc3cc(Cl)ccc3o2)cc1)N1CCN(C(=O)C2(O)CC2)CC1 [1-[(4-{[4-(5-chloro-1,3-benzoxazol-2-yl)phenyl]carbonyl}piperazin-1-yl)carbonyl]cyclopropan-1-ol] | < 0.5 |  | < 0.5 |  |
| O=C(c1ccc(-c2cc(Cl)ccc2F)cc1)N1CCN(C(=O)C2(O)CC2)CC1 [1-[(4-{[4-(5-chloro-2-fluorophenyl)phenyl]carbonyl}piperazin-1-yl)carbonyl]cyclopropan-1-ol] | < 0.5 |  | < 0.5 |  |
| O=C(c1ccc(-c2nc3cc(F)ccc3o2)cc1)N1CCN(C(=O)C2(O)CC2)CC1 [1-[(4-{[4-(5-fluoro-1,3-benzoxazol-2-yl)phenyl]carbonyl}piperazin-1-yl)carbonyl]cyclopropan-1-ol] | < 0.5 |  | < 0.5 |  |
| O=C(c1ccc(-c2nc3ccc(Cl)cc3o2)cc1)N1CCN(C(=O)C2(O)CC2)CC1 [1-[(4-{[4-(6-chloro-1,3-benzoxazol-2-yl)phenyl]carbonyl}piperazin-1-yl)carbonyl]cyclopropan-1-ol] | < 0.5 |  | < 0.5 |  |
| O=C(c1ccc(-c2nc3ccc(F)cc3o2)cc1)N1CCN(C(=O)C2(O)CC2)CC1 [1-[(4-{[4-(6-fluoro-1,3-benzoxazol-2-yl)phenyl]carbonyl}piperazin-1-yl)carbonyl]cyclopropan-1-ol] | < 0.5 |  | < 0.5 |  |
| COc1ccc2nc(-c3ccc(C(=O)N4CCN(C(=O)C5(O)CC5)CC4)cc3)cc(C)c2c1 [1-[(4-{[4-(6-methoxy-4-methylquinolin-2-yl)phenyl]carbonyl}piperazin-1-yl)carbonyl]cyclopropan-1-ol] | < 0.5 |  | < 0.5 |  |
| COc1ccc2cc(-c3ccc(C(=O)N4CCN(C(=O)C5(O)CC5)CC4)cc3)ccc2c1 [1-[(4-{[4-(6-methoxynaphthalen-2-yl)phenyl]carbonyl}piperazin-1-yl)carbonyl]cyclopropan-1-ol] | < 0.5 |  | < 0.5 |  |
| COc1ccc2nc(-c3ccc(C(=O)N4CCN(C(=O)C5(O)CC5)CC4)cc3)ccc2c1 [1-[(4-{[4-(6-methoxyquinolin-2-yl)phenyl]carbonyl}piperazin-1-yl)carbonyl]cyclopropan-1-ol] | < 0.5 |  | < 0.5 |  |
| O=C(c1ccc(-c2nccc3ccccc23)cc1)N1CCN(C(=O)C2(O)CC2)CC1 [1-[(4-{[4-(isoquinolin-1-yl)phenyl]carbonyl}piperazin-1-yl)carbonyl]cyclopropan-1-ol] | < 0.5 |  | < 0.5 |  |
| O=C(c1ccc(-c2ccc3cnccc3c2)cc1)N1CCN(C(=O)C2(O)CCC2)CC1 [1-[(4-{[4-(isoquinolin-6-yl)phenyl]carbonyl}piperazin-1-yl)carbonyl]cyclobutan-1-ol] | < 0.5 |  | < 0.5 |  |
| O=C(c1ccc(-c2ccc3cnccc3c2)cc1)N1CCN(C(=O)C2(O)CC2)CC1 [1-[(4-{[4-(isoquinolin-6-yl)phenyl]carbonyl}piperazin-1-yl)carbonyl]cyclopropan-1-ol] | < 0.5 |  | < 0.5 |  |

Second part, the compound after the results:

| IC50 [1] [µM] | IC50 [2, 3] [µM] | IC50 [2, 4] [µM] | IC50 ([1]; FASN enzymatic assay, Table 2-2) [µM] | SMILES |
| --- | --- | --- | --- | --- |
| < 0.5 |  | < 0.5 |  | O=C(c1ccc(-c2ccc3ccccc3n2)cc1)N1CCN(C(=O)C2(O)CC2)CC1 [1-[(4-{[4-(quinolin-2-yl)phenyl]carbonyl}piperazin-1-yl)carbonyl]cyclopropan-1-ol] |
| < 0.5 |  | < 0.5 |  | O=C(c1ccc(-c2cnc3ccccc3c2)cc1)N1CCN(C(=O)C2(O)CCC2)CC1 [1-[(4-{[4-(quinolin-3-yl)phenyl]carbonyl}piperazin-1-yl)carbonyl]cyclobutan-1-ol] |
| < 0.5 |  | < 0.5 |  | O=C(c1ccc(-c2cccc3ncccc23)cc1)N1CCN(C(=O)C2(O)CC2)CC1 [1-[(4-{[4-(quinolin-5-yl)phenyl]carbonyl}piperazin-1-yl)carbonyl]cyclopropan-1-ol] |
| < 0.5 |  | < 0.5 |  | Cn1ccc2cc(-c3ccc(C(=O)N4CCN(C(=O)C5(O)CC5)CC4)nc3)ccc21 [1-[(4-{[5-(1-methyl-1H-indol-5-yl)pyridin-2-yl]carbonyl}piperazin-1-yl)carbonyl]cyclopropan-1-ol] |
| < 0.5 | ≥ 0.5 |  |  | CC(C)n1ccc2cc(-c3ccc(C(=O)N4CCN(C(=O)C5(O)CC5)CC4)cc3Cl)ccc21 [1-{[4-({3-chloro-4-[1-(propan-2-yl)-1H-indol-5-yl]phenyl}carbonyl)piperazin-1-yl]carbonyl}cyclopropan-1-ol] |
| < 0.5 |  | < 0.5 |  | O=C(c1ccc(-c2ccc3c(ccn3C(F)(F)F)c2)c(Cl)c1)N1CCN(C(=O)C2(O)CC2)CC1 [1-{[4-({3-chloro-4-[1-(trifluoromethyl)-1H-indol-5-yl]phenyl}carbonyl)piperazin-1-yl]carbonyl}cyclopropan-1-ol] |
|  |  | < 0.5 | 0.5 to 5 | O=C(c1ccc(-c2ccc3c(ccn3C(F)(F)F)c2)cc1)N1CCN(C(=O)C2(O)CC2)CC1 [1-{[4-({4-[1-(trifluoromethyl)-1H-indol-5-yl]phenyl}carbonyl)piperazin-1-yl]carbonyl}cyclopropan-1-ol] |
| < 0.5 |  | < 0.5 |  | N#Cc1ccc2nc(-c3ccc(C(=O)N4CCN(C(=O)C5(O)CC5)CC4)cc3)oc2c1 [2-[4-({4-[(1-hydroxycyclopropyl)carbonyl]piperazin-1-yl}carbonyl)phenyl]-1,3-benzoxazole-6-carbonitrile] |
| < 0.5 |  | < 0.5 |  | O=C(c1ccc(-c2cc3ccccc3nc2O)cc1F)N1CCN(C(=O)C2(O)CC2)CC1 [3-[3-fluoro-4-({4-[(1-hydroxycyclopropyl)carbonyl]piperazin-1-yl}carbonyl)phenyl]quinolin-2-ol] |
| < 0.5 |  | < 0.5 |  | O=C(c1ccc(-c2cc3ccccc3[nH]c2=O)cc1)N1CCN(C(=O)C2(O)CC2)CC1 [3-[4-({4-[(1-hydroxycyclopropyl)carbonyl]piperazin-1-yl}carbonyl)phenyl]-1,2-dihydroquinolin-2-one] |
| < 0.5 | ≥ 0.5 |  |  | O=C(c1ccc(-c2cnc3ccccc3c2)cc1)N1CCN(C(=O)C2CCO2)CC1 (stereo not shown) [3-[4-({4-[(oxetan-2-yl)carbonyl]piperazin-1-yl}carbonyl)phenyl]quinoline] |
| < 0.5 |  | < 0.5 |  | N#Cc1cc2cc(-c3ccc(C(=O)N4CCN(C(=O)C5(O)CC5)CC4)cc3)ccc2[nH]1 [5-[4-({4-[(1-hydroxycyclopropyl)carbonyl]piperazin-1-yl}carbonyl)phenyl]-1H-indole-2-carbonitrile] |
| < 0.5 |  | < 0.5 |  | N#Cc1c[nH]c2ccc(-c3ccc(C(=O)N4CCN(C(=O)C5(O)CC5)CC4)cc3)cc12 [5-[4-({4-[(1-hydroxycyclopropyl)carbonyl]piperazin-1-yl}carbonyl)phenyl]-1H-indole-3-carbonitrile] |
| < 0.5 | ≥ 0.5 |  |  | O=C(c1ccc(-c2ccc3[nH]ccc3c2)cc1)N1CCN(C(=O)C2CCO2)CC1 (stereo not shown) [5-[4-({4-[(oxetan-2-yl)carbonyl]piperazin-1-yl}carbonyl)phenyl]-1H-indole] |
| < 0.5 |  | < 0.5 |  | O=C(c1ccc(-c2ccc3cnccc3c2)cc1)N1CCN(C(=O)C2CCO2)CC1 (stereo not shown) [6-[4-({4-[(oxetan-2-yl)carbonyl]piperazin-1-yl}carbonyl)phenyl]isoquinoline] |
| < 0.5 |  | < 0.5 |  | O=C(c1ccc(-c2cccc(NS(=O)(=O)c3ccccc3)c2)cc1)N1CCN(C(=O)C2(O)CC2)CC1 [N-{3-[4-({4-[(1-hydroxycyclopropyl)carbonyl]piperazin-1-yl}carbonyl)phenyl]phenyl}benzenesulfonamide] |
